Reference: patent US4670539A, “Peptide growth factors derived from estrogen responsive kidney tissue” (Board of Regents, The University of Texas, priority 1984, dated 1987)

Tests used:
[1] = system: LLCK-PK1 pig kidney cells; test: growth promoting effects of EGF and/or KDGF on LLCK-PK1 cells; assay type: cell-based
From the text: (§1) Further exploration of this point was done with the cell line designated NRK (normal rat kidney). When used at a low passage number these cells behave as a normal, non-tumorigenic line, as evidenced by their low rates of colony formation in soft agar. This growth pattern facilitated wide spread use of the NRK cells as bioassay targets for alpha- and beta-transforming growth factors. The bioassay of transforming growth factors by soft agar colony formation was shown by others to require the additon of epidermal growth factor (EGF). At higher passage numbers, these cells progressively increase their capacity to form colonies in soft agar without requiring the presence of growth factor supplements to the usual serum containing medium. Using these properties, we have asked whether low and high passage NRK cells responded to KDGF both with and without added EGF. These experiments were conducted in serum free medium, since the presence of even low concentrations (i.e. 1%, vol/vol) of serum inhibited KDGF action. […] Thus with the relatively non-tumorigenic pheno-type NRK cells, KDGF and EGF were synergistic when cells were in sparse culture. […] In a final experiment, the growth promoting effects of EGF and/or KDGF were compared on LLCK-PK1 pig kidney cells. […] EGF alone was mitogenic for LLCK-PK1 cells, whereas KDGF was not. […]

MDCK kidney cell line = test: growth response of MDCK cells; assay type: cell-based, dog
[2] = system: NRK (normal rat kidney) cells; test: tritium labeled thymidine incorporation of low and high passage NRK cells, with and without EGF; assay type: cell-based; conditions: low passage NRK cells, serum free medium
From the text: as §1

## epidermal growth factor [EGF]
[1]
  mitogenic activity, factor alone: mitogenic
MDCK kidney cell line
  growth response: responded
[2]; confluent cultures
  growth (tritium labeled thymidine incorporation), factor alone: Neither KDGF alone nor EGF alone promoted growth
[2]; non-confluent cultures
  mitogenic response, factor alone: limited mitogenic responses
